How the values were obtained:
[1] = Walker carcinosarcoma 256 tumour growth inhibition in rats; format: in vivo, Sprague-Dawley rats; parameters: ED50: unit: mg/kg; conditions: rat, in vivo, po, daily p.o. for 5 days; for LD50: dose causing 50 percent lethality; for selectivity ratio: read-out: T.I. (LD50/ED50)
From the text: (§1) LD50 is the dose that causes a 50 percent lethality of the animals, and ED50 is the dose that causes a 50 percent reduction of tumour size.
(§2) The experimental design and the interpretation of the results are in accordance with the standards set by the CCNSC (Cancer Chemotherpy Reports, January 1959 and December 1962).
(§3) Walker carcinosarcoma 256.
(§4) Experimental animals: Sprague-Dawley rats.
(§5) Tumour implant: Tumour pieces with 2-4 mm diameter, sub-
(§6) Therapy: Daily p.o. administration for 5 days starting on
(§7) the day following implantation.
(§8) Termination: The animals are killed on the 9th day.
(§9) Evaluation: Weights of tumours of test animals are compared
(§10) with those of control animals.

[2] = tested on: Walker carcinosarcoma 256; test: as above; format: in vivo, Sprague-Dawley rats; parameters: ED50: unit: mg/kg; conditions: daily p.o. for 5 days; for ED50: dose causing 50 percent reduction of tumour size, killed 9th day; for antitumour activity: result in words
From the text: as §1, §2, §3, §4, §5, §6, §7, §8, §9, §10

[3] = Hepatome AH 130 tumour growth inhibition in rats; format: in vivo, Sprague-Dawley rats; parameters: ED50: unit not given here; conditions: rat, in vivo, ip, one i.p. injection; for LD50: dose causing 50 percent lethality, column head not given; for selectivity ratio: read-out: T.I. (LD50/ED50)
From the text: as §1, §2, §4
(§11) Tumour implant: 5 × 10^6 tumour cells i.p.
(§12) Therapy: One injection i.p. on the day following implanta-
(§13) Termination: The animals are killed on the 8th day.
as §9, §10

Hepatome AH 130 = Hepatome AH 130 tumour growth inhibition in rats; format: in vivo, Sprague-Dawley rats; parameters: ED50: unit not given here; conditions: one i.p. injection, dose causing 50 percent reduction of tumour size, killed 8th day
From the text: as §1, §2, §4, §11, §12, §13, §9, §10

[4] = tested on: Ehrlich ascites tumour, ELD hyperdiploid; test: Ehrlich ascites tumour, ELD hyperdiploid (46 chromosomes), growth inhibition in mice; format: in vivo, SPF NMRI mice; conditions: one i.p. injection; for Tumour weight Treated/Control: 8th day; for antitumour activity: result in words
From the text: as §2
Ehrlich ascites tumour, ELD hyperdiploid
Experimental animals: SPF NMRI mice.
Tumour implant: 2 × 10^6 tumour cells i.p.
as §12, §13
Evaluation: Weight of tumours of test animals compared with
those of control animals.

[5] = target: T1, rabbit uterus cytosol progesterone receptor (Oryctolagus cuniculus, UniProt P06186); test: Relative affinity to rabbit uterus cytosol progesterone receptor (3H-progesterone competition); format: binding; conditions: compared to progesterone; 50% competition with 3H-progesterone; 16-18 hours at 4° C.
T1 construct: One ml portions of the supernatant (rabbit uterus cytosol) were pipetted into small centrifuge tubes of glass; from tissue; host or cells: uterus cytosol (105,000×g supernatant) of female rabbits pretreated with polyestradiol phosphate
T1 sequence (P06186 1-930): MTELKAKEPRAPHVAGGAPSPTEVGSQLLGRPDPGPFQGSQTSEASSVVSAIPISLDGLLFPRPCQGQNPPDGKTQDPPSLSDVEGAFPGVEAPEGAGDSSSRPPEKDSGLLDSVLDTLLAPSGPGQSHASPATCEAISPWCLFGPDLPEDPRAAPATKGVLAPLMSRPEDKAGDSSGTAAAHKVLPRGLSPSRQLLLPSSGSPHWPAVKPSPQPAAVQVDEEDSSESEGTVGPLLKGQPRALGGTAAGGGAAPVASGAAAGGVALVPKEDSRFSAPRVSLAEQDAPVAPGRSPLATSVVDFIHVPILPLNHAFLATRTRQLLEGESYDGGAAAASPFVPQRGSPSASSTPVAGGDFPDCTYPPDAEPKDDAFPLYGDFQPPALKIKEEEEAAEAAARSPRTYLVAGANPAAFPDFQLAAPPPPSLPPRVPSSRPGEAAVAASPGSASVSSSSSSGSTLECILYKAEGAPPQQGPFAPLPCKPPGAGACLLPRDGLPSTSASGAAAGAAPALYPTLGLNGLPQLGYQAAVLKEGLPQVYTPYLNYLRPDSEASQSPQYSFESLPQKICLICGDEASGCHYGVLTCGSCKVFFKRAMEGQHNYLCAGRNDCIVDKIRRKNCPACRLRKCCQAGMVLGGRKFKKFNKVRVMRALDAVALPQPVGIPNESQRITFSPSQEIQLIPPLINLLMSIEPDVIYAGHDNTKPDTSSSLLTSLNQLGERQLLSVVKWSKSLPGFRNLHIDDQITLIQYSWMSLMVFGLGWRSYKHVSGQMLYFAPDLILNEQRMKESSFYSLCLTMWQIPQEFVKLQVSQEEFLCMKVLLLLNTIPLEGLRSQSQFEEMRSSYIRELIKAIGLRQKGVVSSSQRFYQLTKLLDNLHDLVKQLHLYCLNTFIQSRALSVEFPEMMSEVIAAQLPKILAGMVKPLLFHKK
Description: This example illustrates the compound's relative affinity to rabbit uterus cytosol progesterone receptor compared with progesterone. The method used for this purpose is a modification of methods already described by Kontula, K. et al. (Acta Endocrinol. 78 (1975) 574) and Terenius, L. (Steroids 23 (1974) 909) among others.
Female rabbits (3-4 pounds) from Knut Larsen, Uddevalla, Sweden, were injected i.m. with 1 mg Estradurin (polyestradiol phosphate, 1 mg/ml saline, AB Leo, Sweden). After one week, the animals were killed and the uteri were immediately removed, chilled and cut free from connective tissues. All the following operations were performed at 0°-4° C. The uteri were cut into small pieces and washed several times with 3 vol. of buffer at pH 7.4 containing 50 MM TRIS-HCl, 1.5 mM EDTA, 3 mM NaN3, 2 mM dithiothreitol, and 25% glycerol (by vol.). The tissue was homogenized in the same buffer (3 vol.) with four 15-s bursts at rheostat setting 36-37 of an Ultra Turrax (Janke and Kunkel KG, Staufen, The Federal Republic of Germany). The homogenate was centifuged in a Sorvall GLC-2 centrifuge for 15 min at 600×g. The supernatanate was recentrifuged at 105,000×g for 60 min in a Beckman ultracentrifuge model LB-65-B with rotor SW 56.
One ml portions of the supernatant (rabbit uterus cytosol) were pipetted into small centrifuge tubes of glass and were kept at -70° C. until used. The protein content was determined by the method of Lowry (J. Biol. Chem. 193 (1951) 265).
10.0 mg of each compound was dissolved in 10.0 ml 99.5% ethanol. 100 μl of this standard solution was diluted to 5.0 ml ethanol/glycerol 1:1 (v/v). The ethanol was evaporated by blowing air at 40° C. on the solution. The volume was then adjusted to 5.0 ml by adding buffer without glycerol.
The compounds were diluted with glycerol/buffer 1:1 to final concentrations between 10^-8 -10^-5 M in total 300 μl incubation media. 100 μl of each compound and of each dilution were incubated in small centrifuge tubes (2 ml) together with 100 μl (10 pg) ^3 H-progesterone (1,2,6,7-3H-progesterone, 47.8 Ci/mMol, The Radiochemical Centre, Amersham, England) and 100 μl cytosol adjusted with buffer to a final concentration of about […]. The incubations were carried out for 16-18 hours at 4° C.
The separation of bound from free radioactivity was carried out at 0° C. using the dextran coated charcoal technique (DCC). To each incubation tube was added 0.5 ml DCC-suspension (0.05% dextran-70, Pharmacia, Uppsala, Sweden and 0.5% Norit A, Sigma, Saint Louis, Missouri, U.S.A.) The tubes were agitated 2-3 times during 10 minutes whereupon they were centrifuged at 100×g for five minutes. The supernatantes were decanted directly into Scintillation vials (polyethene, Packard) containing 10 ml InstaGel (Packard). The radioactivity was counted in a Philip's liquid scintillation spectrometer Model PW 4510/00 with external standard and automatic quenching correction.
To incubation tubes were added 100 μl cytosol, 100 μl ^3 H-progesterone (10 pg) and 100 μl of different dilutions of non-radioactive progesterone in glycerol/buffer 1:1 ranging from 0-10^4 pg/100 μl. The tubes were incubated parallel with the compounds described above. The radioactivity was calculated by substracting the counted radioactivity in the incubation tubes with the radioactivity counted in incubations tubes in which the cytosol was replaced with buffer (100 μl).
The concentration of non-radioactive progesterone [P]i which competes for 50% of bound radioactive progesterone was calculated from the standard curve constructed [B] i/[B] o=0.5 where [B]i is the bound radioactivity at different concentrations of non-radioactive progesterone and [B]o is the bound radioactivity at progesterone concentration zero.
In the same manner, curves were constructed for each compound X and the concentration for each compound which competes for 50% with bound ^3 H-progesterone ([X]50) was calculated. […]

With `CC(=O)[C@@]1(OC(=O)COC(=O)Cc2ccc(N(CCCl)CCCl)cc2)CC[C@H]2[C@@H]3CCC4=CC(=O)CC[C@]4(C)[C@H]3CC[C@@]21C` [3:1, 17α-/4-(N,N-bis(2-chloroethyl)amino)phenylacetoxyacetoxy/pregn-4-ene-3,20-dione] the LD50 [1] was > 250 mg/kg, the selectivity ratio [1] was > 31 and the ED50 [2] was 8. For the same molecule, the LD50 [3] was > 250 mg/kg, the selectivity ratio [3] was > 83 and the ED50 (Hepatome AH 130) was 3. The Mortality ([4]; 50 mg/kg) was 1/12, the “Tumour weight Treated/Control” value ([4]; 50 mg/kg) was 3% and the “relative binding affinity (RBA)” value [5] was 6.6%.

`CC(=O)[C@@]1(OC(=O)CCCOC(=O)CCCc2ccc(N(CCCl)CCCl)cc2)CC[C@H]2[C@@H]3CCC4=CC(=O)CC[C@]4(C)[C@H]3CC[C@@]21C` [Compound 3:3] gave an LD50 [1] of 40 mg/kg, a selectivity ratio [1] of 20 and an ED50 [2] of 2. The LD50 [3] was 180 mg/kg, the selectivity ratio [3] was 30 and the ED50 (Hepatome AH 130) was 6. For the same molecule, the antitumour activity [4] was “exhibit antitumour activity” and the “relative binding affinity (RBA)” value [5] was 0.6%.

With `CC(=O)[C@@]1(OC(=O)CCCOC(=O)c2ccc(C)c(N(CCCl)CCCl)c2)CC[C@H]2[C@@H]3CCC4=CC(=O)CC[C@]4(C)[C@H]3CC[C@@]21C` [7:4, 17α-/4-(3-(N,N-bis(2-chloroethyl)amino)-4-methylbenzoyloxy)butanoyloxy/pregn-4-ene-3,20-dione] the antitumour activity [2] was “exhibit antitumour activity”, the LD50 [3] was > 250 mg/kg and the selectivity ratio [3] was > 15. For the same molecule, the ED50 (Hepatome AH 130) was 16, the antitumour activity [4] was “exhibit antitumour activity” and the “relative binding affinity (RBA)” value [5] was 0.9%.

For `CC(=O)[C@@]1(OC(=O)COC(=O)Nc2ccc(N(CCCl)CCCl)cc2)CC[C@H]2[C@@H]3CCC4=CC(=O)CC[C@]4(C)[C@H]3CC[C@@]21C` [Compound 5:1, 17α-/4-(N,N-bis(2-chloroethyl)amino)phenylcarbamoyloxyacetoxy/pregn-4-ene-3,20-dione], the antitumour activity [2] was “exhibit antitumour activity”, the LD50 [3] was > 250 mg/kg and the selectivity ratio [3] was > 8. The ED50 (Hepatome AH 130) was 30, the Mortality ([4]; 1000 mg/kg) was 0/12 and the “Tumour weight Treated/Control” value ([4]; 1000 mg/kg) was 1%. For the same molecule, the antitumour activity [4] was “exhibit antitumour activity” and the “relative binding affinity (RBA)” value [5] was 15.8%.

With `CC(=O)[C@@]1(OC(=O)CNC(=O)CCCc2ccc(N(CCCl)CCCl)cc2)CC[C@H]2[C@@H]3CCC4=CC(=O)CC[C@]4(C)[C@H]3CC[C@@]21C` [Compound 4:1, 17α-/4-(4-(N,N-bis(2-chloroethyl)amino)phenyl)butanoylaminoacetoxy/pregn-4-ene-3,20-dione] the antitumour activity [2] was “exhibit antitumour activity”, the LD50 [3] was > 250 mg/kg and the selectivity ratio [3] was > 2. The ED50 (Hepatome AH 130) was 125, the antitumour activity [4] was “exhibit antitumour activity” and the “relative binding affinity (RBA)” value [5] was 1.1%.

With `CC(=O)[C@@]1(OC(=O)COC(=O)CCCc2ccc(N(CCCl)CCCl)cc2)CC[C@H]2[C@@H]3CCC4=CC(=O)CC[C@]4(C)[C@H]3CC[C@@]21C` [Compound 3:2, 17α-/4-(4-(N,N-bis(2-chloroethyl)amino)phenyl)butanoyloxyacetoxy/pregn-4-ene-3,20-dione] the LD50 [1] was > 250 mg/kg, the selectivity ratio [1] was > 83 and the ED50 [2] was 3. The LD50 [3] was > 1000 mg/kg, the selectivity ratio [3] was > 10 and the ED50 (Hepatome AH 130) was 100. The Mortality ([4]; 50 mg/kg) was 0/12, the “Tumour weight Treated/Control” value ([4]; 50 mg/kg) was 1% and the “relative binding affinity (RBA)” value [5] was 0.7%.

Reference: patent publication US4177269A, “Novel 17-esters of 17α-hydroxy gestogens, compositions containing such compounds, processes for their preparation and methods of treatment therewith” (Aktiebolaget Leo, priority 1976, dated 1979)
